The values that follow come from patent US8901118B2, “Compounds and methods for kinase modulation, and indications therefor” (Plexxikon Inc., priority 2010, dated 2014).

Common to all, as to assay type: cell-based
In one assay the target is T1, BCR-KIT BaF3 cells (Homo sapiens, UniProt P10721).
T1 construct: fused on or other part: P11274 (Breakpoint cluster region protein)
In words: BaF3 BCR-KIT cell proliferation assay (ATPlite). The following applies: read-out: Inhibition of Cell Proliferation IC50, BCR/BaF3 Kit. Summed up:
(§1)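 ATP-based luminescence (ATPlite), read after 10 min at room temperature, served as a proxy for cell number, and IC50 was fitted against compound concentration. Before that, cells were treated for 3 days with an 8-point 1:3 dilution series starting at 10 μM. BaF3 cells were plated at 10,000/well without IL-3, and MV-4-11 cells at 25,000/well.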
For orientation: Cellular ATP, detected with luciferase, serves as a proxy for viable cell number.

The next assay concerns the target T2, BCR-NTRK2 BaF3 cells (Homo sapiens, UniProt Q16620).
T2 construct: fused on or other part: P11274 (Breakpoint cluster region protein)
In words: BaF3 BCR-NTRK2 cell proliferation assay (ATPlite). The settings on record: read-out: Inhibition of Cell Proliferation IC50, BCR/BaF3 TrkB. In outline: as §1

The target of the next assay is T3, BCR-NTRK1 BaF3 cells (Homo sapiens, UniProt P04629).
T3 construct: fused on or other part: P11274 (Breakpoint cluster region protein)
T3 sequence (P04629 510-781): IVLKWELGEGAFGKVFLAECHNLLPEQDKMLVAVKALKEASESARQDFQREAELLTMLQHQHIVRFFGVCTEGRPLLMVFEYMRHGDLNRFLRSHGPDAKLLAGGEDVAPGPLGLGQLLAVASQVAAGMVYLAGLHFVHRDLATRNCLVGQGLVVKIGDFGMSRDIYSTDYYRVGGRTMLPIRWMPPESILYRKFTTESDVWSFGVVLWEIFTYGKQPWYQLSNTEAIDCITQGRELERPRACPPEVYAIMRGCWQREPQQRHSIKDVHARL
Kind of assay: BaF3 BCR-NTRK1 cell proliferation assay (ATPlite). The following applies: read-out: Inhibition of Cell Proliferation IC50, BCR/BaF3 TrkA. Summed up:
as §1

T2 sequence (Q16620 538-807): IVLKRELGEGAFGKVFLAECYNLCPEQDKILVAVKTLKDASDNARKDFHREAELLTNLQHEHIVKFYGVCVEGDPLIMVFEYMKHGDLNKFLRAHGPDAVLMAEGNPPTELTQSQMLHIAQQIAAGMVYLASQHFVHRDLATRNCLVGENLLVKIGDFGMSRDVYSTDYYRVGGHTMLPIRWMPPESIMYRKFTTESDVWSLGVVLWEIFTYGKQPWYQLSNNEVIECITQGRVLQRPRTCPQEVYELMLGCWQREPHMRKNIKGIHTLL
T1 sequence (P10721 589-937): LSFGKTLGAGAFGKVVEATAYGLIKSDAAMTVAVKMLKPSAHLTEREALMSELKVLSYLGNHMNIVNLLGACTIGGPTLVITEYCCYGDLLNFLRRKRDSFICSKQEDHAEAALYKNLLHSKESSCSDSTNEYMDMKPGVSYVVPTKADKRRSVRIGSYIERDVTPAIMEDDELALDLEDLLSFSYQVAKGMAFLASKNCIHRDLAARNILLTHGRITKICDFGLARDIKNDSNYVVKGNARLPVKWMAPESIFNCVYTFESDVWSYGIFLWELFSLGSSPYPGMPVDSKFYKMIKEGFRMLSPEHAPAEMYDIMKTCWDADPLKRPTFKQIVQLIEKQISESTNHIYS

On to `CC(C)Nc1ncnc2[nH]cc(C(=O)c3ccc(NC4CCCCC4)nc3F)c12` [Compound P-4101, [6-(cyclohexylamino)-2-fluoro-3-pyridyl]-[4-(isopropylamino)-7H-pyrrolo[2,3-d]pyrimidin-5-yl]methanone], for which the results for the IC50 on BCR-KIT BaF3 cells, at BCR-NTRK2 BaF3 cells and at BCR-NTRK1 BaF3 cells were below 1 µM, below 0.01 µM and below 0.1 µM, respectively.

On to `CNc1ncnc2[nH]cc(C(=O)c3ccc(NC4CCCCC4)nc3F)c12` [Compound P-4102, [6-(cyclohexylamino)-2-fluoro-3-pyridyl]-[4-(methylamino)-7H-pyrrolo[2,3-d]pyrimidin-5-yl]methanone], for which the IC50 at BCR-KIT BaF3 cells was below 1 µM; at BCR-NTRK2 BaF3 cells it was below 0.1 µM; on BCR-NTRK1 BaF3 cells it was below 1 µM.

As for `COc1cncc(Nc2ccc(C(=O)c3c[nH]c4ncnc(NCC(F)(F)F)c34)c(F)n2)c1` [Compound P-4103, [2-fluoro-6-[(5-methoxy-3-pyridyl)amino]-3-pyridyl]-[4-(2,2,2-trifluoroethylamino)-7H-pyrrolo[2,3-d]pyrimidin-5-yl]methanone], the IC50 at BCR-KIT BaF3 cells was above 1 µM; at BCR-NTRK2 BaF3 cells it was above 1 µM; on BCR-NTRK1 BaF3 cells, below 1 µM.

Take `COc1cncc(Nc2ccc(C(=O)c3c[nH]c4ncnc(NC5CCCCC5)c34)c(F)n2)c1` [Compound P-4104, [4-(cyclohexylamino)-7H-pyrrolo[2,3-d]pyrimidin-5-yl]-[2-fluoro-6-[(5-methoxy-3-pyridyl)amino]-3-pyridyl]methanone]: the IC50 on BCR-KIT BaF3 cells is above 1 µM; at BCR-NTRK2 BaF3 cells, below 0.1 µM; on BCR-NTRK1 BaF3 cells, below 0.1 µM.

Consider `CCCNc1ncnc2[nH]cc(C(=O)c3ccc(Nc4cncc(OC)c4)nc3F)c12` [Compound P-4105, [2-fluoro-6-[(5-methoxy-3-pyridyl)amino]-3-pyridyl]-[4-(propylamino)-7H-pyrrolo[2,3-d]pyrimidin-5-yl]methanone], for which the IC50 is above 1 µM at BCR-KIT BaF3 cells, below 1 µM at BCR-NTRK2 BaF3 cells and below 0.1 µM at BCR-NTRK1 BaF3 cells.

Consider `COc1cncc(Nc2ccc(C(=O)c3c[nH]c4ncnc(NC(C)C)c34)c(F)n2)c1` [Compound P-4106, [2-fluoro-6-[(5-methoxy-3-pyridyl)amino]-3-pyridyl]-[4-(isopropylamino)-7H-pyrrolo[2,3-d]pyrimidin-5-yl]methanone], for which the results for the IC50 on BCR-KIT BaF3 cells, at BCR-NTRK2 BaF3 cells and at BCR-NTRK1 BaF3 cells were below 1 µM, below 0.1 µM and below 0.1 µM, respectively.

For the compound `COc1cncc(Nc2ccc(C(=O)c3c[nH]c4ncnc(NC5CC5)c34)c(F)n2)c1` [Compound P-4107, [4-(cyclopropylamino)-7H-pyrrolo[2,3-d]pyrimidin-5-yl]-[2-fluoro-6-[(5-methoxy-3-pyridyl)amino]-3-pyridyl]methanone], the IC50 is below 1 µM at BCR-KIT BaF3 cells, below 0.1 µM at BCR-NTRK2 BaF3 cells and below 0.1 µM at BCR-NTRK1 BaF3 cells.

Take `CNc1ncnc2[nH]cc(C(=O)c3ccc(Nc4cncc(OC)c4)nc3F)c12` [Compound P-4108, [2-fluoro-6-[(5-methoxy-3-pyridyl)amino]-3-pyridyl]-[4-(methylamino)-7H-pyrrolo[2,3-d]pyrimidin-5-yl]methanone]: the IC50 at BCR-KIT BaF3 cells was above 1 µM; at BCR-NTRK2 BaF3 cells, below 1 µM; on BCR-NTRK1 BaF3 cells it was below 1 µM.

Turning to `CC(C)Nc1ncnc2[nH]cc(C(=O)c3ccc(NC4CCCCC4)nc3Cl)c12` [Compound P-4109, [2-chloro-6-(cyclohexylamino)-3-pyridyl]-[4-(isopropylamino)-7H-pyrrolo[2,3-d]pyrimidin-5-yl]methanone], the IC50 at BCR-KIT BaF3 cells, on BCR-NTRK2 BaF3 cells and at BCR-NTRK1 BaF3 cells was below 1 µM in each case.

Take `CNc1ncnc2[nH]cc(C(=O)c3ccc(NC4CCCCC4)nc3Cl)c12` [Compound P-4110, [2-chloro-6-(cyclohexylamino)-3-pyridyl]-[4-(methylamino)-7H-pyrrolo[2,3-d]pyrimidin-5-yl]methanone]: the IC50 at BCR-KIT BaF3 cells was below 1 µM; on BCR-NTRK2 BaF3 cells it was above 1 µM; on BCR-NTRK1 BaF3 cells, above 1 µM.
